Data from patent US11584746B2, “Inhibitors of EGFR and methods of use thereof” (DANA-FARBER CANCER INSTITUTE, INC., priority 2018, dated 2023).
pEC50, pIC50: −log10 of the molar value. Where two headings read alike, the source gives them in different places.

What was measured:
[1] = test system: EGFR T790M/L858R Ba/F3 cell line; assay: Ba/F3 cell proliferation (MTS assay), EGFR T790M/L858R; format: cell-based, murine; details: for inhibition at 1 µM: compound at 1 μM, EGFR T790M/L858R Ba/F3, read-out: Inhibition of proliferation, Activity (% DMSO control)
Procedure: The selectivity between wild-type EGFR and EGFR containing one or more mutations as described herein can also be measured using cellular proliferation assays where cell proliferation is dependent on kinase activity. […] Proliferation assays are performed at a range of inhibitor concentrations (e.g., 10 μM, 3 μM, 1.1 μM, 330 nM, 110 nM, 33 nM, I1 nM, 3 nM, 1 nM) and an EC50 is calculated.
All cell lines were maintained in RPMI 1640 (Cellgro; Mediatech Inc., Herndon, Calif.) supplemented with 10% FBS 100 units/mL penicillin, 100 units/mL streptomycin, and 2 mM glutamine. […] The EGFR I941R mutation was introduced via site directed mutagenesis using the Quick Change Site-Directed Mutagenesis kit (Stratagene; La Jolla, Calif.) according to the manufacturer's instructions. All constructs were confirmed by DNA sequencing. The constructs were shuttled into the retroviral vector JP1540 using the BD Creator™ System (BD Biosciences). Ba/F3 cells were infected with retrovirus and according to standard protocols, as described previously (Zhou 2009). Stable clones were obtained by selection in puromycin (2 μg/ml).
Growth and inhibition of growth was assessed by MTS assay and was performed according to previously established methods (Zhou 2009). The MTS assay is a colorimetric method for determining the number of viable cells that is based on the bioreduction of MTS by cells to a formazan product that is soluble in cell culture medium and can be detected spectrophotometrically. […] All experimental points were set up in six wells and all experiments were repeated at least three times. […] The curves were fitted using a non-linear regression model with a sigmoidal dose response.

[2] = biological target: recombinant EGFR T790M/L858R kinase (Homo sapiens (Human), UniProt P00533, L858R/T790M); assay: HTRF-based EGFR biochemical assay
Procedure: EGFR biochemical assays are carried out using a homogeneous time-resolved fluorescence (HTRF) assay. The reaction mixtures contain biotin-Lck-peptide substrate, wild type, or mutant EGFR enzyme in reaction buffer. Enzyme concentrations are adjusted to accommodate varying kinase activity and ATP concentrations. Compounds of the present application are diluted into the assay mixture and IC50 values are determined using 12-point inhibition curves.
EGFR kinase proteins were purified by glutathione-affinity chromatography followed by size-exclusion chromatography after cleavage with TEV or thrombin to remove the GST fusion partner following established procedures. (Yun 2008; Yun 2007).
EGFR biochemical assays were carried out using a homogeneous time-resolved fluorescence (HTRF) assay as described previously. The reaction mixtures contained 1 μM biotin-Lck-peptide substrate, wild type or mutant EGFR enzyme in reaction buffer (50 mM HEPES pH 7.1, 10 mM MgCl2, 0.01% BSA. 1 mM TCEP and 0.1 mM Na3VO4) at a final volume of 10 μL. […] All reactions were carried out at room temperature in white ProxiPlate™ 384-well Plus plates (PerkinElmer) and were quenched with 5 μL of 0.2 M EDTA at 60 min. Five μL per well of the detection reagent containing 2.5 ng PT66K (Cis-bio) and 0.05 μg SAXL (Prozyme) were added, and the plates were then incubated at room temperature for 1 hour and read with an EnVision plate reader.

[3] = test system: EGFR L858R/T790M/C797S Ba/F3 cell line; assay: Ba/F3 cell proliferation (MTS assay), EGFR L858R/T790M/C797S; format: cell-based, murine; details: Mus musculus, BaF3, compound at 1 μM, read-out: Inhibition of proliferation, Activity (% DMSO control)
Source text: The selectivity between wild-type EGFR and EGFR containing one or more mutations as described herein can also be measured using cellular proliferation assays where cell proliferation is dependent on kinase activity. For example, murine Ba/F3 cells transfected with a suitable version of wild-type EGFR (such as VIII; containing a WT EGFR kinase domain), or Ba/F3 cells transfected with L858R/T790M, Del/T790M/L718Q, L858R/T790M/L718Q, L858R/T790M/C797S, Del/T790M/C797S, L858R/T790M/I941R, or Exon 19 deletion/T790M can be used. Proliferation assays are performed at a range of inhibitor concentrations (e.g., 10 μM, 3 μM, 1.1 μM, 330 nM, 110 nM, 33 nM, I1 nM, 3 nM, 1 nM) and an EC50 is calculated.
The EGFR mutant L858R, Del E746_A750, L858R/T790M, DelE746_A750/T790M, L858R/T790M/C797S and Del/T790M/C797S Ba/F3 cells were previously described (Zhou et al., Nature 462, (2009), 1070-1074). All cell lines were maintained in RPMI 1640 (Cellgro; Mediatech Inc., Herndon, Calif.) supplemented with 10% FBS 100 units/mL penicillin, 100 units/mL streptomycin, and 2 mM glutamine. L858R cells were maintained in ACL-4 media (Invitrogen, Carlsbad, Calif.) supplemented with 5% FBS, 100 units/mL penicillin, 100 units/mL streptomycin, and 2 mM glutamine. The EGFR I941R mutation was introduced via site directed mutagenesis using the Quick Change Site-Directed Mutagenesis kit (Stratagene; La Jolla, Calif.) according to the manufacturer's instructions. All constructs were confirmed by DNA sequencing. The constructs were shuttled into the retroviral vector JP1540 using the BD Creator™ System (BD Biosciences). Ba/F3 cells were infected with retrovirus and according to standard protocols, as described previously (Zhou 2009). Stable clones were obtained by selection in puromycin (2 μg/ml).
Growth and inhibition of growth was assessed by MTS assay and was performed according to previously established methods (Zhou 2009). The MTS assay is a colorimetric method for determining the number of viable cells that is based on the bioreduction of MTS by cells to a formazan product that is soluble in cell culture medium and can be detected spectrophotometrically. Ba/F3 cells of different EGFR genotypes were exposed to treatment and the number of cells used per experiment determined empirically and has been previously established (Zhou 2009). All experimental points were set up in six wells and all experiments were repeated at least three times. […] The curves were fitted using a non-linear regression model with a sigmoidal dose response.

[4] = Mus musculus, BaF3, read-out: Ba/F3 cellular activity (EC50) T790M/L858R
[5] = read-out: Ba/F3 cellular activity (EC50) T790M/L858R + Cetuximab (1 μg/mL), presence of 1 μg/mL cetuximab

Chain of recombinant EGFR T790M/L858R kinase (P00533 696-1022 T790M/L858R): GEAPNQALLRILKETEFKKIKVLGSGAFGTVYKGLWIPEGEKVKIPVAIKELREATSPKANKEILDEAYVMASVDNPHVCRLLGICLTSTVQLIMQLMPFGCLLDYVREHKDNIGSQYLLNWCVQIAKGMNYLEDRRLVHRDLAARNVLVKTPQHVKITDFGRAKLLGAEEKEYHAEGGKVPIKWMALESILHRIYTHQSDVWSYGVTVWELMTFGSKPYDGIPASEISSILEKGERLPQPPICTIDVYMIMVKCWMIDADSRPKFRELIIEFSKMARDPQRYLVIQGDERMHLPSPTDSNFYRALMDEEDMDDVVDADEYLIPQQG

Row | SMILES | inhibition at 1 µM ([1]; Mus musculus, BaF3) | pEC50 [1, 4] | pEC50 [1, 5] | pIC50 [2] | inhibition at 1 µM [3]
1 | O=C1c2cc(-c3ccc(N4CCNCC4)cc3)ccc2Nc2ccc(F)cc2N1Cc1ccccc1 [Compound I-1, 10-Benzyl-8-fluoro-2-(4-(piperazin-1-yl)phenyl)-5,10-dihydro-11H-dibenzo[b,e][1,4]diazepin-11-one] | ≥ 75% | ≤ 6.12 | 6.12 to 6.30 | > 6.60 | ≥ 75%
2 | O=C1c2cc(-c3ccc4[nH]ccc4c3)ccc2Nc2ccc(F)cc2N1Cc1ccccc1 [Compound I-2] | ≥ 75% | ≤ 6.12 | > 6.60 | > 6.60 | ≥ 75%
3 | CN1CCC(n2cc(-c3ccc4c(c3)C(=O)N(Cc3ccccc3)c3cc(F)ccc3N4)cn2)CC1 [Compound I-3] | ≥ 75% | ≤ 6.12 | > 6.60 | > 6.60 | ≥ 75%
4 | O=C1c2cc(-c3ccc(-c4cn[nH]c4)cc3)ccc2Nc2ccc(F)cc2N1Cc1ccccc1 [Compound I-4] | ≥ 75% | ≤ 6.12 | 6.30 to 6.60 | > 6.60 | ≥ 75%
5 | O=C1c2cc(-c3ccc(N4CCNCC4)cc3)ccc2Nc2ccc(F)cc2N1c1ccccc1 [Compound I-5] | ≥ 75% | ≤ 6.12 | ≤ 6.12 | – | ≥ 75%
6 | O=C1c2cc(-c3ccc(N4CCNCC4)cc3)ccc2Nc2ccc(F)cc2N1Cc1cccnc1 [Compound I-6] | ≥ 75% | ≤ 6.12 | ≤ 6.12 | – | ≥ 75%
7 | O=C1c2cc(-c3ccc4[nH]ccc4c3)ccc2Nc2ccc(F)cc2N1c1ccccc1 [Compound I-8] | ≥ 75% | ≤ 6.12 | ≤ 6.12 | – | ≥ 75%
8 | O=C1c2cc(-c3ccc4[nH]ccc4c3)ccc2Nc2ccc(F)cc2N1Cc1cccnc1 [Compound I-9] | ≥ 75% | ≤ 6.12 | ≤ 6.12 | – | ≥ 75%
9 | O=C1c2cc(-c3ccc4[nH]ccc4c3)ccc2Nc2ccc(F)cc2N1Cc1nccs1 [Compound I-10] | ≥ 75% | ≤ 6.12 | ≤ 6.12 | – | ≥ 75%
10 | O=C1c2cc(-c3ccc(N4CCNCC4)cc3)ccc2Nc2ncc(F)cc2N1Cc1ccccc1 [Compound I-12] | – | ≤ 6.12 | ≤ 6.12 | – | –
11 | O=C1c2cc(-c3ccc(N4CCNCC4)cc3)ccc2Nc2ccncc2N1Cc1ccccc1 [Compound I-13] | – | ≤ 6.12 | ≤ 6.12 | – | –
12 | Nc1ccc2c(c1)N(Cc1ccccc1)C(=O)c1cc(-c3ccc4[nH]ccc4c3)ccc1N2 [Compound I-14] | – | ≤ 6.12 | ≤ 6.12 | – | –
13 | CC(=O)Nc1ccc2c(c1)N(Cc1ccccc1)C(=O)c1cc(-c3ccc4[nH]ccc4c3)ccc1N2 [Compound I-15] | – | ≤ 6.12 | ≤ 6.12 | – | –
14 | CCC(=O)Nc1ccc2c(c1)N(Cc1ccccc1)C(=O)c1cc(-c3ccc4[nH]ccc4c3)ccc1N2 [Compound I-16] | – | 6.30 to 6.60 | 6.30 to 6.60 | – | –
15 | CN1CCC(c2ccc(-c3ccc4c(c3)C(=O)N(Cc3ccccc3)c3cc(F)ccc3N4)cc2)CC1 [Compound I-17] | – | – | – | > 6.60 | –
16 | O=C1c2cc(-c3ccc(N4CCNCC4)cc3)ccc2Nc2ccc(F)cc2N1Cc1cccc2cc[nH]c12 [Compound I-18] | – | ≤ 6.12 | > 6.60 | > 6.60 | –
17 | O=C1c2cc(-c3ccc(N4CCNCC4)cc3)ccc2Nc2ccc(F)cc2N1Cc1ccc2cc[nH]c2c1 [Compound I-19] | – | ≤ 6.12 | ≤ 6.12 | – | –
18 | CN1CCN(c2ccc(Oc3ccc4c(c3)C(=O)N(Cc3ccccc3)c3cc(F)ccc3N4)cc2)CC1 [Compound I-20, 10-benzyl-8-fluoro-2-(4-(4-methylpiperazin-1-yl)phenoxy)-5,10-dihydro-11H-dibenzo[b,e][1,4]diazepin-11-one] | – | ≤ 6.12 | 6.30 to 6.60 | > 6.60 | –
19 | CN1CCC(n2cc(-c3ccc4c(c3)C(=O)N(Cc3cccc(F)c3)c3cc(F)ccc3N4)cn2)CC1 [Compound I-22] | – | ≤ 6.12 | ≤ 6.12 | > 6.60 | –
20 | CN1CCC(n2cc(-c3ccc4c(c3)C(=O)N(Cc3cccc(Cl)c3)c3cc(F)ccc3N4)cn2)CC1 [Compound I-23] | – | ≤ 6.12 | ≤ 6.12 | > 6.60 | –
21 | CN1CCC(n2cc(-c3ccc4c(c3)C(=O)N(Cc3cc(F)cc(F)c3)c3cc(F)ccc3N4)cn2)CC1 [Compound I-24] | – | ≤ 6.12 | ≤ 6.12 | > 6.60 | –
22 | CN1CCC(n2cc(-c3ccc4c(c3)C(=O)N(Cc3cccc5cc[nH]c35)c3cc(F)ccc3N4)cn2)CC1 [Compound I-25] | – | ≤ 6.12 | ≤ 6.12 | > 6.60 | –
23 | O=C1c2cc(Br)ccc2Nc2ccc(F)cc2N1Cc1ccccc1 [I-a] | – | ≤ 6.12 | 6.30 to 6.60 | > 6.60 | –
